In publication PMC12647591, “Evolution, structure and function of L-cysteine desulfidase, an enzyme involved in sulfur metabolism in the methanogenic archeon Methanococcus maripaludis” (Communications Biology, 2025):
Numbering of substitutions follows the chain as printed.

Experiments:
[1] = target: T1, L-cysteine desulfidase CyuA (MmCyuA) (Methanococcus maripaludis, UniProt Q6LX84, C289A); test: crystal structure, […] Å (from cryoprotectant); assay type: binding
T1 construct: gene MMP1468; holo-C289A-MmCyuA
T1 sequence (Q6LX84 1-396 C289A): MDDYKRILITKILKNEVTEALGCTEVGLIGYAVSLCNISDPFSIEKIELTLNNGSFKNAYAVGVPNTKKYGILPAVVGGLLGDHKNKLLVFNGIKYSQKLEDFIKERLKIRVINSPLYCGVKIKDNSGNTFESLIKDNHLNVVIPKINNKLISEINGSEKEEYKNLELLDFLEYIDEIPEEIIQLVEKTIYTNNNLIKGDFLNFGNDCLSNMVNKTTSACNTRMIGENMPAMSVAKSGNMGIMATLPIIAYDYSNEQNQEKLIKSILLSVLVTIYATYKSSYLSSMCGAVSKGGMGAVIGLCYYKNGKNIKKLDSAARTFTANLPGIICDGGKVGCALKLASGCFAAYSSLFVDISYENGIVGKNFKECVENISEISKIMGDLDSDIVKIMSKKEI

[2] = target: T2, L-cysteine desulfidase CyuA (MmCyuA) (Methanococcus maripaludis, UniProt Q6LX84); test: crystal structure, […] Å (from crystallization solution); assay type: binding; parameters: gene MMP1468; [2Fe-2S]-MmCyuA, molecule A
T2 sequence (Q6LX84 whole entry): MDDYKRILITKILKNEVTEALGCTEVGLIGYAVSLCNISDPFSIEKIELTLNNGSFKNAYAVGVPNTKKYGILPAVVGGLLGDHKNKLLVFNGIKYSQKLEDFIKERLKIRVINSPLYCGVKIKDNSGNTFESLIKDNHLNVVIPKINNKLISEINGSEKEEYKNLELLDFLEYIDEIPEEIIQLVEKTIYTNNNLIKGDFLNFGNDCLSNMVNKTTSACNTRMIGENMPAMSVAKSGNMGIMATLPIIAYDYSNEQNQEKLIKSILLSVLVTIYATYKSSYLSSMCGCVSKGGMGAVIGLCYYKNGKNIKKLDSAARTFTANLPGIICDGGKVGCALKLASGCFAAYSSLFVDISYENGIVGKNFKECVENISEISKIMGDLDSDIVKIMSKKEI

[3] = target: T2, L-cysteine desulfidase CyuA (MmCyuA); test: pyruvate formation assay ([…],4-dinitrophenylhydrazine), Lineweaver-Burk and Dixon plots; assay type: biochemical; parameters: gene MMP1468; holo-MmCyuA, recombinant, His-tag removed
[4] = target: the molecule itself; test: SEC-MALS; apo-MmCyuA (cluster removed with dithionite and EDTA), 100 uL at 2 mg/mL on Superdex 200 10/300 GL Increase, 50 mM Tris-HCl pH 8.5, 300 mM NaCl, 5 mM DTT

OCC(O)CO [GOL, glycerol]
crystal structure, 3.18 Å (from cryoprotectant) [1]: One terminal hydroxyl of the glycerol molecule was coordinated to that Fe atom

O=S(=O)(O)CCN1CCOCC1 [2-(N-morpholino)ethanesulfonic acid]
crystal structure, 2.42 Å (from crystallization solution) [2]: sulfonate group of MES and the chloride ion were located at the same anion binding site

N[C@@H](CO)C(=O)O [L-serine]
Ki [3]: 15 ± 0.3 µM

B1: L-cysteine desulfidase CyuA from Methanococcus maripaludis (enzyme, Methanococcus maripaludis strain S2)
chain: T1 sequence (Q6LX84 1-396 C289A) with A289C
notes: L-cysteine desulfidase CyuA (MmCyuA), product of the mmp1468 gene of Methanococcus maripaludis strain S2 (NC_005791.1); synthetic codon-optimised gene in pET15b between NdeI and BamHI; theoretical mass of the monomer 43.7 kDa; the synthetic mmp1468 gene appears to have been cloned whole; Holo form carries one [4Fe-4S] cluster per monomer (Cys287, Cys289, Cys329, Cys336); in crystal 2 a [2Fe-2S] …
stoichiometry N [4]: 2
